In brackets after ≈: the same amount, converted by molar mass. Where two headings read alike, the source gives them in different places.
Experiments:
Format in all cases: cell-based
[1] = system: Streptococcus pyogenes 1079; test: MIC, microtiter broth dilution (NCCLS M100-S14), S. pyogenes 1079 (ermB)
Summary of the method: (§1)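 Microtiter broth dilution; interpretation per NCCLS M100-S14; endpoint = MIC. Stock: 40 mg/ml in DMSO.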

[2] = system: Streptococcus pneumoniae 1016; test: MIC, microtiter broth dilution (NCCLS M100-S14), S. pneumoniae 1016 (susceptible)
Summary of the method: as §1

[3] = system: Haemophilus influenzae 1218; test: MIC, microtiter broth dilution (NCCLS M100-S14), H. influenzae 1218 (susceptible)
Summary of the method: as §1

[4] = system: Streptococcus pneumoniae 1175; conditions: microtiter broth dilution
Summary of the method: as §1

[5] = system: Streptococcus pneumoniae 1095; conditions: microtiter broth dilution
Summary of the method: as §1

[6] = S. pneumoniae 1016 (susceptible)
[7] = H. influenzae 1218 (susceptible)

SMILES	MIC S. pyogenes 1079 ([1]; Streptococcus pyogenes 1079) [µg/mL]	MIC S. pneumo. 1016 ([2]; Streptococcus pneumoniae 1016) [µg/mL]	MIC H. influenzae 1218 ([3]; Haemophilus influenzae 1218) [µg/mL]	MIC S. pneumo. 1175 ([4]; Streptococcus pneumoniae 1175) [µg/mL]	MIC S. pneumo. 1095 ([5]; Streptococcus pneumoniae 1095) [µg/mL]	MIC S. pyogenes 1079 ([1]; S. pyogenes 1079 (ermB)) [µg/mL]	MIC S. pneumo. 1016 [2, 6] [µg/mL]	MIC H. influenzae 1218 [3, 7] [µg/mL]	MIC S. pneumo. 1175 ([4]; S. pneumoniae 1175 (mefA)) [µg/mL]	MIC S. pneumo. 1095 ([5]; S. pneumoniae 1095 (ermB)) [µg/mL]
CCC1OC(=O)C(C)C(=O)C(C)C(OC2OC(C)CC(N(C)C)C2O)C(C)(OC)CC(C)C(=O)C(C)C2N(CC3CN(C(=O)c4cc5ccccc5cn4)C3)C(=O)OC12C.O=CO (stereo not shown) [4.39]	>64.00	<0.06	4	<0.06	8					
CC[C@H]1OC(=O)[C@H](C)C(=O)[C@H](C)[C@@H](O[C@@H]2O[C@H](C)C[C@H](N(C)C)[C@H]2O)[C@](C)(OC)C[C@@H](C)C(=O)[C@H](C)[C@H]2N(CC3(C)CN(Cc4ccc5nccnc5c4)C3)C(=O)O[C@]12C [6.04]	>64.00	<0.06	1 (≈ 1.19 µM)	0.25 (≈ 0.298 µM)	0.25 (≈ 0.298 µM)					
CCC1OC(=O)C(C)C(=O)C(C)C(OC2OC(C)CC(N(C)C)C2O)C(C)(OC)CC(C)C(=O)C(C)C2N(C3CN(S(=O)(=O)c4ccc(-n5cccn5)c(C#N)c4)C3)C(=O)OC12C (stereo not shown) [Example 3.50]	0.25 (≈ 0.278 µM)	<0.06	1 (≈ 1.11 µM)	<0.06	<0.06					
CCC1OC(=O)C(C)C(=O)C(C)C(OC2OC(C)CC(N(C)C)C2O)C(C)(OC)CC(C)C(=O)C(C)C2N(C3CN(C(=O)c4cccc(-n5nc(C)cc5C)c4)C3)C(=O)OC12C (stereo not shown) [Example 2.17, 3-(3,5-dimethyl-1H-pyrazol-1-yl)benzoyl]	>64.00	<0.06	>64.00	0.25 (≈ 0.289 µM)	>64.00					
CCC1OC(=O)C(C)C(=O)C(C)C(OC2OC(C)CC(N(C)C)C2O)C(C)(OC)CC(C)C(=O)C(C)C2N(CC3CCCN3C(=O)c3ccc4cnccc4n3)C(=O)OC12C (stereo not shown) [10.49]						>64.00	<0.06	8 (≈ 9.39 µM)	2 (≈ 2.35 µM)	2 (≈ 2.35 µM)
CC[C@H]1OC(=O)[C@H](C)C(=O)[C@H](C)[C@@H](O[C@@H]2O[C@H](C)C[C@H](N(C)C)[C@H]2O)[C@](C)(OC)C[C@@H](C)C(=O)[C@H](C)[C@H]2N(CC3(O)CN(C(=O)c4ccc5ccccc5n4)C3)C(=O)O[C@]12C [7.22]						>64.00	<0.06	1 (≈ 1.17 µM)	0.12 (≈ 0.141 µM)	<0.06
CCC1OC(=O)C(C)C(=O)C(C)C(OC2OC(C)CC(N(C)C)C2O)C(C)(OC)CC(C)C(=O)C(C)C2N(CC3CCN(Cc4cccc5nccnc45)C3)C(=O)OC12C [Example 11.02, 3-descladinosyl-11,12-dideoxy-6-O-methyl-3-oxo-12,11-(oxycarbonyl-(1-((quinoxalin-8-yl)-methyl)-((S)-pyrrolidin-3-yl)-methyl)-imino)-erythromycin A]						4 (≈ 4.77 µM)	<0.06	0.5 (≈ 0.597 µM)	0.25 (≈ 0.298 µM)	<0.06
CCC1OC(=O)C(C)C(=O)C(C)C(OC2OC(C)CC(N(C)C)C2O)C(C)(OC)CC(C)C(=O)C(C)C2N(C3CN(Cc4ccncc4F)C3)C(=O)OC12C (stereo not shown) [Example 1.78, 3-descladinosyl-11,12-dideoxy-6-O-methyl-3-oxo-12,11-(oxycarbonyl-(1-(3-fluoropyridine-4-methyl)-azetidin-3-yl)-imino)-erythromycin A]	4 (≈ 5.15 µM)	<0.063	1 (≈ 1.29 µM)	<0.063	<0.063					
CCOc1cnc2ncccc2c1CN1CC(N2C(=O)OC3(C)C(CC)OC(=O)C(C)C(=O)C(C)C(OC4OC(C)CC(N(C)C)C4O)C(C)(OC)CC(C)C(=O)C(C)C23)C1 (stereo not shown) [Example 1.108, 3-descladinosyl-11,12-dideoxy-6-O-methyl-3-oxo-12,11-(oxycarbonyl-(1-(3-ethoxy-1,8-naphthyridine-4-methyl)-azetidin-3-yl)-imino)-erythromycin A]	0.5 (≈ 0.585 µM)	<0.063	1 (≈ 1.17 µM)	0.125 (≈ 0.146 µM)	<0.063					
CCC1OC(=O)C(C)C(=O)C(C)C(OC2OC(C)CC(N(C)C)C2O)C(C)(OC)CC(C)C(=O)C(C)C2N(C3CN(S(=O)(=O)c4ccc(N5CCOC5=O)cc4)C3)C(=O)OC12C (stereo not shown) [Example 3.115, 3-descladinosyl-11,12-dideoxy-6-O-methyl-3-oxo-12,11-(oxycarbonyl-(1-(4-(2-oxooxazolidin-3-yl)benzene-1-sulfonyl)-azetidin-3-yl)-imino)-erythromycin A]	0.25 (≈ 0.28 µM)	<0.063	1 (≈ 1.12 µM)	0.125 (≈ 0.14 µM)	<0.063					
CCC1OC(=O)C(C)C(=O)C(C)C(OC2OC(C)CC(N(C)C)C2O)C(C)(OC)CC(C)C(=O)C(C)C2N(CC3CCN(Cc4c[nH]nn4)CC3)C(=O)OC12C (stereo not shown) [15.10]						>64.00	<0.06	4 (≈ 5.06 µM)	8 (≈ 10.1 µM)	>64.00
CCC1OC(=O)C(C)C(=O)C(C)C(OC2OC(C)CC(N(C)C)C2O)C(C)(OC)CC(C)C(=O)C(C)C2N(C3CN(Cc4ccnc5[nH]c(C6CC6)nc45)C3)C(=O)OC12C (stereo not shown) [Example 1.89, 3-descladinosyl-11,12-dideoxy-6-O-methyl-3-oxo-12,11-(oxycarbonyl-(1-(2-cyclopropyl-3H-imidazo[4,5-b]pyridine-7-methyl)-azetidin-3-yl)-imino)-erythromycin A]	1 (≈ 1.19 µM)	<0.063	4 (≈ 4.77 µM)	<0.063	0.5 (≈ 0.596 µM)					
CC[C@H]1OC(=O)[C@H](C)C(=O)[C@H](C)[C@@H](O[C@@H]2O[C@H](C)C[C@H](N(C)C)[C@H]2O)[C@](C)(OC)C[C@@H](C)C(=O)[C@H](C)[C@H]2N(CC3(O)CN(Cc4ccn(-c5cccnc5)n4)C3)C(=O)O[C@]12C [7.13]						>64.00	<0.06	2 (≈ 2.34 µM)	1 (≈ 1.17 µM)	1 (≈ 1.17 µM)
CCC1OC(=O)C(C)C(=O)C(C)C(OC2OC(C)CC(N(C)C)C2O)C(C)(OC)CC(C)C(=O)C(C)C2N(C3CN(S(=O)(=O)c4ccc5c(c4)CS(=O)(=O)C5)C3)C(=O)OC12C (stereo not shown) [Example 3.95]	0.12 (≈ 0.134 µM)	<0.06	0.5 (≈ 0.557 µM)	<0.06	<0.06					
CCC1OC(=O)C(C)C(=O)C(C)C(OC2OC(C)CC(N(C)C)C2O)C(C)(OC)CC(C)C(=O)C(C)C2N(C3CN(S(=O)(=O)c4ccc5[nH]ncc5c4)C3)C(=O)OC12C (stereo not shown) [Example 3.87, 3-descladinosyl-11,12-dideoxy-6-O-methyl-3-oxo-12,11-(oxycarbonyl-(1-(1H-indazole-5-sulfonyl)-azetidin-3-yl)-imino)-erythromycin A]	0.19 (≈ 0.224 µM)	<0.06	0.19 (≈ 0.224 µM)	<0.06	<0.06					
CCOc1ccc(S(=O)(=O)N2CC(N3C(=O)OC4(C)C(CC)OC(=O)C(C)C(=O)C(C)C(OC5OC(C)CC(N(C)C)C5O)C(C)(OC)CC(C)C(=O)C(C)C34)C2)cc1OC (stereo not shown) [Example 3.105, 3-descladinosyl-11,12-dideoxy-6-O-methyl-3-oxo-12,11-(oxycarbonyl-(1-(4-ethoxy-3-methoxybenzene-1-sulfonyl)-azetidin-3-yl)-imino)-erythromycin A]	1 (≈ 1.13 µM)	<0.063	0.25 (≈ 0.283 µM)	<0.063	<0.063					
CCC1OC(=O)C(C)C(=O)C(C)C(OC2OC(C)CC(N(C)C)C2O)C(C)(OC)CC(C)C(=O)C(C)C2N(C3CN(C(=O)c4cncc5ccccc45)C3)C(=O)OC12C (stereo not shown) [Example 2.01]	>64.00	<0.06	4 (≈ 4.86 µM)	0.25 (≈ 0.304 µM)	32 (≈ 38.9 µM)					

Source: patent US7462600B2, “Macrolides” (Pfizer Inc, priority 2004, dated 2008)
